The subject of data set [1] is A375 human melanoma cells. Put plainly: Subcutaneous A375 human melanoma xenograft in Nu/J nude mice. The format is in vivo. The note with it: Dabrafenib 100 mg/Kg PO daily, alone or with BQ788 600 ng IP TIW; A375 tumors 150-200 mm3 at start. The protocol:
FIG. 7. BQ788 synergizes with Dabrafenib in vivo. A375 human melanoma cells were implanted subcutaneously into the rear flank of Nu/J nude mice and allowed to grow to 150 mm3-200 mm3 prior to randomization and initiation of treatment. The mice received the following treatments: (1) vehicle (n=8), (2) Dabrafenib 100 mg/Kg PO daily (n=5), and (3) Dabrafenib+BQ788 600 ng IP TIW (n=5).
BQ788 synergizes with a bRAF inhibitor in vivo (FIG. 7). A375 human melanoma cells (3×10^6) were implanted subcutaneously into the rear flank of Nu/J nude mice and allowed to grow to 150 mm3-200 mm3 prior to randomization and initiation of treatment. The treatment groups were as follows: (1) vehicle (n=8), Dabrafenib 100 mg/Kg PO daily (n=5), (2) Dabrafenib+BQ788 600 ng IP 3 x per week (n=5).

Data set [2] relates to melanoma cell lines overexpressing ETBR. Put plainly: Mouse melanoma brain metastasis model, xenografts of ETBR-overexpressing melanoma cell lines. The note with it: A192621 60 mg/kg/day. It is filed as in vivo, mice. The method, then:
FIGS. 5A, 5B, 5C, 5D, and 5E. ETBR antagonist inhibits melanoma brain metastasis in mice. […] In this study, lentiviral vectors were used to overexpress ETBR in melanoma cell lines, which were in turn used to implant xenografts in mice.
A192621 inhibits melanoma brain metastasis in mice (FIGS. 5A, 5B, 5C, 5D, and 5E). […] A192621 was administered at a dose of 60 mg/kg/day using a mouse melanoma model. […] In this study, lentiviral vectors were used to overexpress ETBR in melanoma cell lines, which were in turn used to implant xenografts in mice. […]

The test system of data set [3] is SKMEL28 human melanoma cells. In words: SKMEL28 human melanoma xenograft in mice, tumor weight and lung metastases. The format is in vivo. The protocol: BQ788 inhibits melanoma growth and metastasis (FIGS. 4A and 4B). […] Mice were implanted with 1×10^6 SKMEL28 human melanoma cells. Tumors were established for 10 days until palpable then 120 ng ([…]) BQ788 dissolved in DMSO was injected IP 3× per week x 6 weeks. Mice were then sacrificed and lungs harvested and tumors weighed. A 75% reduction in tumor weight was observed.
In general terms: A xenograft is tissue or cells of one species grown in another, often human tumour cells in immunodeficient mice.

The target in another data set is T1, ETBR (Homo sapiens, UniProt P24530).
T1 sequence (P24530 27-442): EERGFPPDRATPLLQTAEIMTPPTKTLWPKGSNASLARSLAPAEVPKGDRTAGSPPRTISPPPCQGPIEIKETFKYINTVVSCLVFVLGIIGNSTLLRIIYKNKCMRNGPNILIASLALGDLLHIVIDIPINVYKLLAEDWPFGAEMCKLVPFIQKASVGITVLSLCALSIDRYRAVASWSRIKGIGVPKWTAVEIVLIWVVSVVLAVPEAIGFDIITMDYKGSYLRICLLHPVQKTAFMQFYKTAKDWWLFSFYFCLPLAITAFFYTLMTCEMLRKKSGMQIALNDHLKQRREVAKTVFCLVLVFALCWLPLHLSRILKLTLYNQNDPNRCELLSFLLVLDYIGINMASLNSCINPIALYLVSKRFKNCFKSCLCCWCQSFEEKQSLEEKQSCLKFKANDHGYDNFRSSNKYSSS
To be noted: ETBR antagonist, no method given, cited from earlier work.

Data set [4] in a line: Body weight of athymic nude mice under intranasal BQ788 over 42 days. It is filed as in vivo. The method, then:
FIG. 9. ETAR antagonist and Niacinamide mitigate weight loss from BQ788. Six week old athymic nude mice were administered the ETBR antagonist BQ788 intranasally in 20% DMSO at the indicated ascending doses over a period of 42 days. One group was additionally administered the ETAR antagonist Macitentan orally at a dose of 5 mg/kg daily. The drinking water of these mice was supplemented with the B vitamin niacinamide at a concentration of 0.3 mg/mL. […] Animals thus treated were able to maintain body weight throughout the study. Co-administration of ETAR antagonists and niacinamide with ETBR antagonists mitigated the adverse effects of ETBR antagonists when administered for therapeutic purposes.
ETAR antagonist and Niacinamide mitigate weight loss from BQ788 ([…]). Six week old athymic nude mice (n=3 per group) were administered the ETBR antagonist BQ788 intranasally in 20% DMSO at the indicated ascending doses over a period of 42 days. One group was additionally administered the ETAR antagonist Macitentan orally at a dose of 5 mg/kg daily. The drinking water of these mice was supplemented with the B vitamin niacinamide at a concentration of 0.3 mg/mL. […] Animals thus treated were able to maintain body weight throughout the study. […]

Entries after “also recorded” stand apart in the source; their conditions may differ.

Turning to `CC(C)(C)c1nc(-c2cccc(NS(=O)(=O)c3c(F)cccc3F)c2F)c(-c2ccnc(N)n2)s1` [Dabrafenib], in data set [1], the tumor growth result is listed as “retarded the growth of tumors; also recorded: retarded tumor growth”.
With `CCCOc1ccc([C@H]2[C@H](C(=O)O)[C@@H](c3ccc4c(c3)OCO4)CN2CC(=O)Nc2c(CC)cccc2CC)cc1` [A192621, (2R,3R,4S)-4-(1,3-benzodioxol-5-yl)-1-[2-(2,6-diethylanilino)-2-oxoethyl]-2-(4-propoxyphenyl) pyrrolidine-3-carboxylic acid], in data set [2], the CNS melanoma tumors result was “shrinks CNS melanoma tumors”, the brain melanoma metastases result was “shrinks brain melanoma metastases” and the survival result is “increases survival”.
As a reminder, the IC50 is the concentration that gives 50% inhibition. What is called Ki is the equilibrium dissociation constant of an inhibitor or competing ligand from its target. In the case of `CCCC[C@@H](NC(=O)[C@@H](Cc1cn(C(=O)OC)c2ccccc12)NC(=O)[C@H](CC(C)(C)C)NC(=O)N1[C@H](C)CCC[C@@H]1C)C(=O)[O][Na+]` [BQ788], the “reduction in tumor weight” value in data set [3] (120 ng (~60 μg/kg) BQ788 in DMSO IP 3x per week x 6 weeks, SKMEL28 tumors in mice) is 75%. Also, the “clearance of lung metastases” value in data set [3] (120 ng BQ788 IP 3x per week x 6 weeks, lung specimens vs control mice) is over 95%. Besides, the IC50 at ETBR (for BQ788 printed as inhibitor of ETBR-related melanoma cell growth) is 1.2 nM. Also, the Ki on ETBR was 17.8 nM. Also, in data set [4] (BQ788 alone intranasally in 20% DMSO, ascending doses, end of 42 day study), the “average weight loss relative to baseline body weight” value is 5%. Moreover, the “effect on body weight / thriving” value in data set [4] (BQ788 intranasally, ascending doses over 42 days, with or without Macitentan 5 mg/kg orally daily and niacinamide 0.3 mg/mL in drinking water) is “failed to thrive”.

Source of the values: US12533390B2, “Methods and compositions for treatment of Endothelin B receptor expressing tumors” (ENB Therapeutics, Inc., priority 2015, dated 2026).
